Measurements as given in PubChem BioAssay AID2060884 (Molecular Pharmacology Branch, DTP, NCI, 2025).

Test system: NCI-H929 complex spheroids, viability % test/control
Test: Anticancer human tumor NCI-H929 cell line growth inhibition [RAS];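 further: compound exposure lasted seven days before viability was read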;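 on viability, T/C: 100% = DMSO vehicle control viability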
Settings: for IC50: curve of first compound; for viability, T/C: stronger effect = lower value
Outline: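 Multi-cell-type spheroids: tumor cells plus HUVEC endothelial cells and mesenchymal stem cells. RAS-pathway inhibitors were combined with targeted agents, each dosed in half-log steps down from clinical Cmax, or from 10 microM when Cmax was unknown.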

[1] = second compound 0.0316 µM, first compound 0.000949 µM
[2] = second compound 0.0316 µM, first compound 0.003 µM
[3] = second compound 0.0316 µM, first compound 0.00949 µM
[4] = second compound 0.0316 µM, first compound 0.03 µM
[5] = second compound 0.0316 µM, first compound 0.0949 µM
[6] = second compound 0.0316 µM, first compound 0.3 µM
[7] = second compound 0.1 µM, first compound 0.000949 µM
[8] = second compound 0.1 µM, first compound 0.003 µM
[9] = second compound 0.1 µM, first compound 0.00949 µM
[10] = second compound 0.1 µM, first compound 0.03 µM
[11] = second compound 0.1 µM, first compound 0.0949 µM
[12] = second compound 0.1 µM, first compound 0.3 µM
[13] = second compound 0.316 µM, first compound 0.000949 µM
[14] = second compound 0.316 µM, first compound 0.003 µM
[15] = second compound 0.316 µM, first compound 0.00949 µM
[16] = second compound 0.316 µM, first compound 0.03 µM
[17] = second compound 0.316 µM, first compound 0.0949 µM
[18] = second compound 0.316 µM, first compound 0.3 µM
[19] = second compound 1 µM, first compound 0.000949 µM
[20] = second compound 1 µM, first compound 0.003 µM
[21] = second compound 1 µM, first compound 0.00949 µM
[22] = second compound 1 µM, first compound 0.03 µM
[23] = second compound 1 µM, first compound 0.0949 µM
[24] = second compound 1 µM, first compound 0.3 µM
[25] = second compound 3.16 µM, first compound 0.000949 µM
[26] = second compound 3.16 µM, first compound 0.003 µM
[27] = second compound 3.16 µM, first compound 0.00949 µM
[28] = second compound 3.16 µM, first compound 0.03 µM
[29] = second compound 3.16 µM, first compound 0.0949 µM
[30] = second compound 3.16 µM, first compound 0.3 µM
[31] = second compound 10 µM, first compound 0.000949 µM
[32] = second compound 10 µM, first compound 0.003 µM
[33] = second compound 10 µM, first compound 0.00949 µM
[34] = second compound 10 µM, first compound 0.03 µM
[35] = second compound 10 µM, first compound 0.0949 µM
[36] = second compound 10 µM, first compound 0.3 µM

In the case of C=CC(=O)N1CCN(c2nc(OCC3CCCN3C)nc3c(F)c(-c4nc(N)cc(C)c4C(F)(F)F)c(Cl)cc23)C(C)C1 (stereo unspecified) + C#Cc1c(F)ccc2cc(O)cc(-c3ncc4c(N5CC6CCC(C5)N6)nc(OCC56CCCN5CC(F)C6)nc4c3F)c12, the IC50 (second compound 0.0316 µM) is reported as greater than 1000 nM, the IC50 (second compound 0.1 µM) is reported as greater than 1000 nM and the IC50 (second compound 0.316 µM) is reported as greater than 1000 nM. It also gave an IC50 (second compound 1 µM) greater than 1000 nM, an IC50 (second compound 3.16 µM) greater than 1000 nM and an IC50 (second compound 10 µM) greater than 1000 nM. For the same compound, the viability, T/C (second compound 0.0316 µM, first compound 0.00316 µM) was 102%, the viability, T/C (second compound 0.0316 µM, first compound 0.01 µM) was 97.5% and the viability, T/C (second compound 0.0316 µM, first compound 0.0316 µM) was 99.1%. For the same compound, the viability, T/C (second compound 0.0316 µM, first compound 0.1 µM) was 97.3%, the viability, T/C (second compound 0.0316 µM, first compound 0.316 µM) was 108% and the viability, T/C (second compound 0.0316 µM, first compound 1 µM) was 103%. For the same compound, the viability, T/C (second compound 0.1 µM, first compound 0.00316 µM) was 98.8%, the viability, T/C (second compound 0.1 µM, first compound 0.01 µM) was 101% and the viability, T/C (second compound 0.1 µM, first compound 0.0316 µM) was 102%. The viability, T/C (second compound 0.1 µM, first compound 0.1 µM) was 106%, the viability, T/C (second compound 0.1 µM, first compound 0.316 µM) was 107% and the viability, T/C (second compound 0.1 µM, first compound 1 µM) was 112%. For the same compound, the viability, T/C (second compound 0.316 µM, first compound 0.00316 µM) was 96.1%, the viability, T/C (second compound 0.316 µM, first compound 0.01 µM) was 104% and the viability, T/C (second compound 0.316 µM, first compound 0.0316 µM) was 101%. For the same compound, the viability, T/C (second compound 0.316 µM, first compound 0.1 µM) was 104%, the viability, T/C (second compound 0.316 µM, first compound 0.316 µM) was 106% and the viability, T/C (second compound 0.316 µM, first compound 1 µM) was 110%. The viability, T/C (second compound 1 µM, first compound 0.00316 µM) was 95.8%, the viability, T/C (second compound 1 µM, first compound 0.01 µM) was 104% and the viability, T/C (second compound 1 µM, first compound 0.0316 µM) was 107%. The viability, T/C (second compound 1 µM, first compound 0.1 µM) was 105%, the viability, T/C (second compound 1 µM, first compound 0.316 µM) was 101% and the viability, T/C (second compound 1 µM, first compound 1 µM) was 112%. For the same compound, the viability, T/C (second compound 3.16 µM, first compound 0.00316 µM) was 103%, the viability, T/C (second compound 3.16 µM, first compound 0.01 µM) was 99.8% and the viability, T/C (second compound 3.16 µM, first compound 0.0316 µM) was 103%. For the same compound, the viability, T/C (second compound 3.16 µM, first compound 0.1 µM) was 104%, the viability, T/C (second compound 3.16 µM, first compound 0.316 µM) was 106% and the viability, T/C (second compound 3.16 µM, first compound 1 µM) was 115%. For the same compound, the viability, T/C (second compound 10 µM, first compound 0.00316 µM) was 104%, the viability, T/C (second compound 10 µM, first compound 0.01 µM) was 101% and the viability, T/C (second compound 10 µM, first compound 0.0316 µM) was 100%. The viability, T/C (second compound 10 µM, first compound 0.1 µM) was 105%, the viability, T/C (second compound 10 µM, first compound 0.316 µM) was 99.6% and the viability, T/C (second compound 10 µM, first compound 1 µM) was 104%.

Work on CC1(C)CCC(Nc2ncc(C(F)(F)F)c(-c3c[nH]c4c(P(C)(C)=O)c(C#N)ccc34)n2)CN1 (stereo unspecified) + C#Cc1c(F)ccc2cc(O)cc(-c3ncc4c(N5CC6CCC(C5)N6)nc(OCC56CCCN5CC(F)C6)nc4c3F)c12 yielded an IC50 (second compound 0.0316 µM) of 6.01 nM, an IC50 (second compound 0.1 µM) of 6.55 nM and an IC50 (second compound 0.316 µM) of 6.56 nM. For the same compound, the IC50 (second compound 1 µM) was 6.55 nM, the IC50 (second compound 3.16 µM) was 6.8 nM and the IC50 (second compound 10 µM) was 6.8 nM. The viability, T/C [1] was 129%, the viability, T/C [2] was 98.5% and the viability, T/C [3] was 17.9%. It also gave a viability, T/C [4] of 12.8%, a viability, T/C [5] of 8.56% and a viability, T/C [6] of 5.72%. For the same compound, the viability, T/C [7] was 124%, the viability, T/C [8] was 116% and the viability, T/C [9] was 18.6%. For the same compound, the viability, T/C [10] was 13.8%, the viability, T/C [11] was 8.47% and the viability, T/C [12] was 5.88%. The viability, T/C [13] was 127%, the viability, T/C [14] was 114% and the viability, T/C [15] was 19.6%. For the same compound, the viability, T/C [16] was 18%, the viability, T/C [17] was 8.37% and the viability, T/C [18] was 5.86%. The viability, T/C [19] was 121%, the viability, T/C [20] was 112% and the viability, T/C [21] was 19.3%. For the same compound, the viability, T/C [22] was 48.8%, the viability, T/C [23] was 9.11% and the viability, T/C [24] was 5.75%. For the same compound, the viability, T/C [25] was 127%, the viability, T/C [26] was 118% and the viability, T/C [27] was 22.1%. It also gave a viability, T/C [28] of 22.5%, a viability, T/C [29] of 9.71% and a viability, T/C [30] of 6.25%. The viability, T/C [31] was 125%, the viability, T/C [32] was 104% and the viability, T/C [33] was 23.3%. The viability, T/C [34] was 63.5%, the viability, T/C [35] was 14.7% and the viability, T/C [36] was 10.9%.

CCc1c2c(nc3ccc(O)cc13)-c1cc3c(c(=O)n1C2)COC(=O)[C@]3(O)CC + C#Cc1c(F)ccc2cc(O)cc(-c3ncc4c(N5CC6CCC(C5)N6)nc(OCC56CCCN5CC(F)C6)nc4c3F)c12 was tested, and the IC50 (second compound 0.0316 µM) was 1.88 nM, the IC50 (second compound 0.1 µM) was 1.97 nM and the IC50 (second compound 0.316 µM) was 1.83 nM. The IC50 (second compound 1 µM) was 1.85 nM, the IC50 (second compound 3.16 µM) was 1.83 nM and the IC50 (second compound 10 µM) was 1.7 nM. It also gave a viability, T/C [1] of 107%, a viability, T/C [2] of 11.1% and a viability, T/C [3] of 1.08%. For the same compound, the viability, T/C [4] was 1.06%, the viability, T/C [5] was 2.09% and the viability, T/C [6] was 1.3%. For the same compound, the viability, T/C [7] was 103%, the viability, T/C [8] was 19% and the viability, T/C [9] was 1.39%. The viability, T/C [10] was 3.06%, the viability, T/C [11] was 2.48% and the viability, T/C [12] was 0.71%. The viability, T/C [13] was 103%, the viability, T/C [14] was 10.5% and the viability, T/C [15] was 1.36%. It also gave a viability, T/C [16] of 2.4%, a viability, T/C [17] of 1.35% and a viability, T/C [18] of 1.02%. It also gave a viability, T/C [19] of 104%, a viability, T/C [20] of 11.1% and a viability, T/C [21] of 1.18%. It also gave a viability, T/C [22] of 1.37%, a viability, T/C [23] of 0.94% and a viability, T/C [24] of 0.76%. It also gave a viability, T/C [25] of 104%, a viability, T/C [26] of 9.19% and a viability, T/C [27] of 2.65%. It also gave a viability, T/C [28] of 1.69%, a viability, T/C [29] of 1.26% and a viability, T/C [30] of 0.49%. It also gave a viability, T/C [31] of 92%, a viability, T/C [32] of 9.27% and a viability, T/C [33] of 1.7%. It also gave a viability, T/C [34] of 1.05%, a viability, T/C [35] of 1.19% and a viability, T/C [36] of 0.41%.
